The text below walks through data of DBAASP.

Some test systems named below: Escherichia coli BW25113; Bacillus cereus AS1.126; Escherichia coli AS1.349.
Common to all, as to assay: ≥ marks a high value that may be exact or a test limit, other limits are often not marked, values filed in µg/mL are converted to µM
The subject of assay [1] is Pseudomonas aeruginosa ATCC 9027.
Assay [2] concerns Staphylococcus epidermidis ATCC 12228.
Assay [3] deals with Staphylococcus aureus ATCC 29737.
Assay [4] concerns Candida albicans ATCC 10231.
The subject of assay [5] is Escherichia coli ATCC 25922.
For assay [6], the system named is Candida albicans ATCC 90028.
For assay [7], the system named is Staphylococcus aureus USA 300.
The subject of assay [8] is Staphylococcus aureus USA 100.
Assay [9] has as its system Salmonella enterica subsp. enterica serovar Enteritidis ATCC 13076.
Assay [10] relates to Saccharomyces cerevisiae ATCC 44774.
In assay [11] the test system is Streptococcus mutans ATCC 25175.
For assay [12], the system named is Staphylococcus aureus ATCC 15752.
Assay [13] concerns Escherichia coli ATCC 27325.
Assay [14] concerns Bacillus subtilis ATCC 62037.
Assay [15] concerns Cryptococcus neoformans ATCC 34881.
In assay [16] the test system is Pseudomonas putida ATCC 17426.
In assay [17] the test system is Enterococcus faecalis CGMCC 1.595.
The subject of assay [18] is Enterococcus faecium CGMCC 1.2334.
The test system of assay [19] is Lactococcus lactis AS1.1690.
Assay [20] relates to Staphylococcus aureus AS1.72.
Assay [21] concerns Pseudomonas aeruginosa CGMCC 1.860.
The subject of assay [22] is Cronobacter sakazakii DPC 6440.
The subject of assay [23] is Listeria monocytogenes LO28.

Values after ≈ are worked out from the molar mass of the structure shown.

As to `CC[C@H](C)[C@H](N)C(=O)N[C@@H](CCCN=C(N)N)C(=O)N[C@H](C(=O)N[C@@H](CCCCN)C(=O)N[C@H](C(=O)N[C@@H](CCCN=C(N)N)C(=O)N[C@H](C(=O)N[C@@H](CCCCN)C(=O)N[C@H](C(=O)N[C@@H](CCCN=C(N)N)C(=O)N[C@H](C(=O)N[C@@H](CCCCN)C(N)=O)C(C)C)[C@@H](C)CC)C(C)C)[C@@H](C)CC)C(C)C` [IRVKIRVKIRVK], the MIC (in general, the smallest concentration in the dilution series that meets the test's criterion for growth inhibition) was 41.4 µM (≈ 62.5 µg/mL) in assay [1]; 1.33 µM (≈ 2 µg/mL) in assay [2]; 20.8 µM (≈ 31.3 µg/mL) in assay [3]; 82.9 µM (≈ 125 µg/mL) in assay [4]; 10.3 µM (≈ 15.6 µg/mL) in assay [5].

As for `CC(=O)N[C@@H](CCCCN)C(=O)N1CCC[C@H]1C(=O)N[C@H](C(N)=O)C(C)C` [KPV], the MIC is greater than 100 µM in [1], no less than 100 µM in [6], no less than 100 µM in assay [7] and no less than 100 µM in [8].

For the compound `CC(C)C[C@H](NC(=O)CNC(=O)[C@H](C)NC(=O)[C@@H](N)CCCN=C(N)N)C(=O)N[C@@H](CCC(N)=O)C(=O)N[C@@H](Cc1ccccc1)C(=O)N1CCC[C@H]1C(=O)N[C@H](C(=O)NCC(=O)N[C@@H](CCCCN)C(=O)N[C@@H](CC(C)C)C(=O)N[C@@H](CC(C)C)C(=O)N[C@@H](CCCCN)C(=O)N[C@@H](CCCCN)C(=O)N[C@@H](CC(C)C)C(=O)N[C@@H](CC(C)C)C(=O)N[C@@H](CCCCN)C(=O)N[C@@H](CCCN=C(N)N)C(=O)N[C@@H](CC(C)C)C(=O)N[C@@H](CCCCN)C(=O)N[C@@H](CCCN=C(N)N)C(=O)O)C(C)C` [RAGLQFPVGKLLKKLLKRLKR], the MIC is 0.406 µM (≈ 1 µg/mL) in [9]; 0.812 µM (≈ 2 µg/mL) in assay [10]; 0.812 µM (≈ 2 µg/mL) in assay [11]; 0.812 µM (≈ 2 µg/mL) in assay [12]; 0.812 µM (≈ 2 µg/mL) in assay [13]; 0.812 µM (≈ 2 µg/mL) in assay [14]. The MIC in assay [15], in assay [4] and in assay [16] was 0.812 µM (≈ 2 µg/mL) throughout.

For the compound `CC[C@H](C)[C@H](NC(=O)[C@@H]1CCCN1C(=O)[C@@H]1CCCN1C(=O)[C@H](CCCN=C(N)N)NC(=O)[C@H](Cc1ccccc1)NC(=O)[C@@H](N)CCCN=C(N)N)C(=O)N[C@@H](CCCN=C(N)N)C(=O)N[C@@H](CCCN=C(N)N)C(=O)N1CCC[C@H]1C(=O)N1CCC[C@H]1C(=O)N[C@H](C(=O)N[C@@H](CCCN=C(N)N)C(=O)N1CCC[C@H]1C(=O)N1CCC[C@H]1C(=O)N[C@@H](Cc1ccccc1)C(=O)N[C@@H](Cc1ccc(O)cc1)C(=O)N[C@@H](Cc1c[nH]c2ccccc12)C(=O)O)[C@@H](C)CC` [RFRPPIRRPPIRPPFYW], the MIC against Escherichia coli BW25113 was 16 µM (≈ 36 µg/mL).

For `C[C@H](NC(=O)[C@H](CCCN=C(N)N)NC(=O)[C@H](Cc1cnc[nH]1)NC(=O)[C@H](Cc1c[nH]c2ccccc12)NC(=O)[C@H](Cc1ccccc1)NC(=O)[C@H](CCCN=C(N)N)NC(=O)[C@@H](N)CCCN=C(N)N)C(=O)N[C@@H](Cc1cnc[nH]1)C(=O)O` [RRFWHRAH], the MIC (in assay [17]; in the assay with Bacillus cereus AS1.126; in assay [18]; in [19]; with Escherichia coli AS1.349; in assay [20]) was no less than 100 µM each time. The compound also registered an MIC in assay [21] of no less than 100 µM.

In the case of `CC(C)C[C@H](NC(=O)[C@H](CCCCN)NC(=O)[C@H](CCCN=C(N)N)NC(=O)[C@H](Cc1cnc[nH]1)NC(=O)[C@H](C)NC(=O)[C@H](CCCN=C(N)N)NC(=O)[C@H](Cc1cnc[nH]1)NC(=O)[C@H](Cc1c[nH]c2ccccc12)NC(=O)[C@H](Cc1ccccc1)NC(=O)[C@H](CCCN=C(N)N)NC(=O)[C@H](CCCN=C(N)N)NC(=O)[C@H](Cc1c[nH]c2ccccc12)NC(=O)[C@H](Cc1cnc[nH]1)NC(=O)[C@H](CCCN=C(N)N)NC(=O)[C@H](Cc1c[nH]c2ccccc12)NC(=O)[C@@H](NC(=O)[C@H](CCCCN)NC(=O)[C@@H](N)CO)C(C)C)C(=O)O` [SKVWRHWRRFWHRAHRKL], the MIC in assay [17] was 1.56 µM (≈ 3.97 µg/mL); against Bacillus cereus AS1.126, 3.13 µM (≈ 7.96 µg/mL); in assay [18], 3.13 µM (≈ 7.96 µg/mL); in assay [19], 3.13 µM (≈ 7.96 µg/mL); against Escherichia coli AS1.349, 6.25 µM (≈ 15.9 µg/mL); in [20], 3.13 µM (≈ 7.96 µg/mL). In addition, the MIC in [21] is 1.56 µM (≈ 3.97 µg/mL).

As to `CC(C)[C@H](N)C(=O)N[C@@H](Cc1c[nH]c2ccccc12)C(=O)N[C@@H](CCCN=C(N)N)C(=O)N[C@@H](Cc1cnc[nH]1)C(=O)N[C@@H](Cc1c[nH]c2ccccc12)C(=O)N[C@@H](CCCN=C(N)N)C(=O)N[C@@H](CCCN=C(N)N)C(=O)N[C@@H](Cc1ccccc1)C(=O)N[C@@H](Cc1c[nH]c2ccccc12)C(=O)N[C@@H](Cc1cnc[nH]1)C(=O)N[C@@H](CCCN=C(N)N)C(=O)O` [VWRHWRRFWHR], the MIC in assay [17] worked out at 3.13 µM (≈ 5.39 µg/mL); with Bacillus cereus AS1.126, 3.13 µM (≈ 5.39 µg/mL); in assay [18], 3.13 µM (≈ 5.39 µg/mL); in assay [19] it was 6.25 µM (≈ 10.8 µg/mL); in the assay on Escherichia coli AS1.349, 6.25 µM (≈ 10.8 µg/mL); in [20], 3.13 µM (≈ 5.39 µg/mL). The compound further showed an MIC in [21] of 3.13 µM (≈ 5.39 µg/mL).

`CC[C@H](C)[C@H](NC(=O)[C@@H](N)Cc1c[nH]c2ccccc12)C(=O)N[C@@H](CCC(N)=O)C(=O)N1CCC[C@H]1C(=O)N[C@@H](C)C(=O)N[C@H](C(=O)N[C@@H](C)C(=O)N[C@H](C(=O)N[C@H](C(=O)N1CCC[C@H]1C(=O)N[C@@H](Cc1ccc(O)cc1)C(=O)N[C@H](C(=O)N[C@@H](C)C(=O)N[C@@H](Cc1ccc(O)cc1)C(=O)N[C@@H](CC(C)C)C(=O)O)C(C)C)[C@@H](C)CC)C(C)C)[C@@H](C)O` [WIQPATAVIPYVAYL]: the MIC in assay [22] is no less than 625 µM; in assay [23], no less than 156 µM.

Turning to `CC[C@H](C)[C@H](NC(=O)[C@@H](N)Cc1c[nH]c2ccccc12)C(=O)N[C@@H](CCC(N)=O)C(=O)N1CCC[C@H]1C(=O)N[C@@H](CCCCN)C(=O)N[C@H](C(=O)N[C@@H](CCCCN)C(=O)N[C@H](C(=O)N[C@H](C(=O)N1CCC[C@H]1C(=O)N[C@@H](Cc1c[nH]c2ccccc12)C(=O)N[C@@H](Cc1c[nH]c2ccccc12)C(=O)N[C@@H](Cc1c[nH]c2ccccc12)C(=O)N[C@@H](Cc1c[nH]c2ccccc12)C(=O)N[C@@H](Cc1c[nH]c2ccccc12)C(=O)O)[C@@H](C)CC)C(C)C)[C@@H](C)O` [WIQPKTKVIPWWWWW], the MIC is no less than 78.1 µM in [22] and 4.88 µM (≈ 10.5 µg/mL) in [23].

Take `CC[C@H](C)[C@H](NC(=O)[C@@H](N)Cc1c[nH]c2ccccc12)C(=O)N[C@@H](CCC(N)=O)C(=O)N1CCC[C@H]1C(=O)N[C@@H](CCCCN)C(=O)N[C@H](C(=O)N[C@@H](CCCCN)C(=O)N[C@H](C(=O)N[C@H](C(=O)N1CCC[C@H]1C(=O)O)[C@@H](C)CC)C(C)C)[C@@H](C)O` [WIQPKTKVIP]: the MIC in assay [22] was no less than 625 µM; in assay [23], no less than 156 µM.

Compound `NC(=O)[C@H](Cc1c[nH]c2ccccc12)NC(=O)[C@H](Cc1c[nH]c2ccccc12)NC(=O)[C@H](Cc1c[nH]c2ccccc12)NC(=O)[C@@H](N)Cc1c[nH]c2ccccc12` [WWWW] came in with an MIC in [8] of no less than 100 µM.
